Reference: patent publication US9179694B2, “Method and composition for enhancing milk production and milk component concentrations” (PURINA ANIMAL NUTRITION LLC, priority 2003, dated 2015)

Assay: Dry matter feed intake in sorbitol feeding trials
Format: in vivo, Holstein cows
Method: To determine the dry matter weight (or dry matter basis or dry basis) of a particular sample, the sample is first weighed. The weighed sample is then dried in an oven at a temperature that is adequate to drive off moisture from the sample without degrading the sample components, such as a temperature ranging from about 100° C. to about 110° C. The oven drying is continued until the weight of the dried sample remains constant, despite additional oven drying. During the pre-partum period, for all cows utilized in Example One or Example Two, the pre-partum control feed, as modified to include any sorbitol indicated above for the different trials, was placed in the feeding troughs of the different cows participating in the different trials once daily in the morning. Thereafter, these different pre-partum feeds (the pre-partum control feed, including any incorporated sorbitol dosage of a particular trial during the pre-partum period) of the different trials were lightly stirred, separately and individually, in front of the cows of the different trials three times per day during the pre-partum period to encourage additional feed ingestion by the cows. Leftover rations from the previous day's feeding were collected and weighed from each feeding trough during the pre-partum period, prior to feeding the test cows on a subsequent day. The cows of the different trials received a sufficient amount of the pre-partum to ensure at least about ten weight percent of the pre-partum feeds of the different trials remained in the feeding troughs of each trial each day of the pre-partum period, based on the amount of the different pre-partum feeds of the different trials provided at the beginning of each day. Feed refusals were measured daily during the pre-partum period, and water was supplied ad libitum. During the early post-partum period, for all cows utilized in Example One or Example Two, the first post-partum control feed, as modified to include any sorbitol indicated above for the different trials, was placed in the feeding troughs of the different cows participating in the different trials once daily in the morning. Thereafter, these first post-partum feeds (the first post-partum control feed, including any incorporated sorbitol dosage of a particular trial during the early post-partum period) of the different trials were lightly stirred, separately and individually, in front of the cows of the different trials three times per day during the early post-partum period to encourage additional feed ingestion by the cows. Leftover rations from the previous day's feeding were collected and weighed from each feeding trough during the early post-partum period, prior to feeding the test cows on a subsequent day. The cows of the different trials received a sufficient amount of the first post-partum feed to ensure at least about ten weight percent of the first post-partum feeds of the different trials remained in the feeding troughs of each trial each day of the early post-partum period, based on the amount of the different first post-partum feeds of the different trials provided at the beginning of each day. Feed refusals were measured daily during the early post-partum period, and water was supplied ad libitum. […] Thereafter, the second post-partum control feed were lightly stirred, separately and individually, in front of the cows of the different trials three times per day during the weeks +5 through +8 to encourage additional feed ingestion by the cows. Leftover rations from the previous day's feeding were collected and weighed from each feeding trough during weeks +5 through +8, prior to feeding the test cows on a subsequent day. […]

## OC[C@@H](O)[C@@H](O)[C@H](O)[C@@H](O)CO [sorbitol]
Pre/Post Trial #1 (150/125/100 g/day in wk −3..−1/+1..+4/+5..+8), multiparious cows, week +7, two-trial comparison with Control Trial #2 (Table 22)
  Dry Matter Feed Intake: 54.9 lbs/day
Pre/Post Trial #1 (150/125/100 g/day in wk −3..−1/+1..+4/+5..+8), multiparious cows, week +8
  Dry Matter Intake: 57.1 lbs/day
Pre/Post Trial #1 (150/125/100 g/day in wk −3..−1/+1..+4/+5..+8), multiparious cows, week +8, two-trial comparison with Control Trial #2 (Table 22)
  Dry Matter Feed Intake: 57.4 lbs/day
Pre/Post Trial #1 (150/125/100 g/day in wk −3..−1/+1..+4/+5..+8), multiparious cows, week −1
  Dry Matter Intake: 33.3 lbs/day
Pre/Post Trial #1 (150/125/100 g/day in wk −3..−1/+1..+4/+5..+8), multiparious cows, week −1, two-trial comparison with Control Trial #2 (Table 22)
  Dry Matter Feed Intake: 33.4 lbs/day
Pre/Post Trial #1 (150/125/100 g/day in wk −3..−1/+1..+4/+5..+8), multiparious cows, week −2
  Dry Matter Intake: 34.6 lbs/day
Pre/Post Trial #1 (150/125/100 g/day in wk −3..−1/+1..+4/+5..+8), multiparious cows, week −2, two-trial comparison with Control Trial #2 (Table 22)
  Dry Matter Feed Intake: 35.2 lbs/day
Pre/Post Trial #1 (150/125/100 g/day in wk −3..−1/+1..+4/+5..+8), multiparious cows, week −2 versus −1
  Change in Dry Matter Feed Intake: −1.39 lbs/day
Pre/Post Trial #1 (150/125/100 g/day in wk −3..−1/+1..+4/+5..+8), multiparious cows, week −2 versus −1, two-trial comparison with Control Trial #2 (Table 22)
  Change in Dry Matter Feed Intake: −1.83 lbs/day
Pre/Post Trial #1 (150/125/100 g/day in wk −3..−1/+1..+4/+5..+8), multiparious cows, week −3
  Dry Matter Intake: 29.6 lbs/day
Pre/Post Trial #1 (150/125/100 g/day in wk −3..−1/+1..+4/+5..+8), multiparious cows, week −3, two-trial comparison with Control Trial #2 (Table 22)
  Dry Matter Feed Intake: 30.7 lbs/day
Pre/Post Trial #1 (150/125/100 g/day in wk −3..−1/+1..+4/+5..+8), multiparious cows, weeks +1 through +4
  Dry Matter Intake: 45.4 lbs/day
Pre/Post Trial #1 (150/125/100 g/day in wk −3..−1/+1..+4/+5..+8), multiparious cows, weeks +1 through +4, two-trial comparison with Control Trial #2 (Table 22)
  Dry Matter Feed Intake: 45.7 lbs/day
Pre/Post Trial #1 (150/125/100 g/day in wk −3..−1/+1..+4/+5..+8), multiparious cows, weeks +1 through +8
  Dry Matter Intake: 50.1 lbs/day
Pre/Post Trial #1 (150/125/100 g/day in wk −3..−1/+1..+4/+5..+8), multiparious cows, weeks +1 through +8, two-trial comparison with Control Trial #2 (Table 22)
  Dry Matter Feed Intake: 50.4 lbs/day
Pre/Post Trial #1 (150/125/100 g/day in wk −3..−1/+1..+4/+5..+8), multiparious cows, weeks +5 through +8
  Dry Matter Intake: 54.9 lbs/day
Pre/Post Trial #1 (150/125/100 g/day in wk −3..−1/+1..+4/+5..+8), multiparious cows, weeks +5 through +8, two-trial comparison with Control Trial #2 (Table 22)
  Dry Matter Feed Intake: 55.3 lbs/day
Pre/Post Trial #1 (150/125/100 g/day in wk −3..−1/+1..+4/+5..+8), multiparious cows, weeks −3 through −1
  Dry Matter Intake: 32.6 lbs/day
Pre/Post Trial #1 (150/125/100 g/day in wk −3..−1/+1..+4/+5..+8), multiparious cows, weeks −3 through −1, two-trial comparison with Control Trial #2 (Table 22)
  Dry Matter Feed Intake: 33.0 lbs/day
Pre/Post Trial #1 (150/125/100 g/day) compared to Control Trial #2, multiparous cows, week −1 before calving versus week +1 after calving
  greater increase of dry matter feed intake: 3.19 pounds per day
Pre/Post Trial #1 (150/125 g/day pre-/early post-partum) versus Pre/Post Trial #2 (75/75 g/day), multiparious cows, early post-partum period (weeks +1 through +4)
  greater daily rate of dry matter feed intake: 7.6%
Pre/Post Trial #2 (75/75/100 g/day in wk −3..−1/+1..+4/+5..+8), multiparious cows, week +1
  Dry Matter Intake: 33.1 lbs/day
Pre/Post Trial #2 (75/75/100 g/day in wk −3..−1/+1..+4/+5..+8), multiparious cows, week +1 versus −1
  Change in Dry Matter Feed Intake: 0.72 lbs/day
Pre/Post Trial #2 (75/75/100 g/day in wk −3..−1/+1..+4/+5..+8), multiparious cows, week +2
  Dry Matter Intake: 41.2 lbs/day
Pre/Post Trial #2 (75/75/100 g/day in wk −3..−1/+1..+4/+5..+8), multiparious cows, week +3
  Dry Matter Intake: 45.3 lbs/day
Pre/Post Trial #2 (75/75/100 g/day in wk −3..−1/+1..+4/+5..+8), multiparious cows, week +4
  Dry Matter Intake: 49.8 lbs/day
Pre/Post Trial #2 (75/75/100 g/day in wk −3..−1/+1..+4/+5..+8), multiparious cows, week +5
  Dry Matter Intake: 53.6 lbs/day
Pre/Post Trial #2 (75/75/100 g/day in wk −3..−1/+1..+4/+5..+8), multiparious cows, week +6
  Dry Matter Intake: 54.2 lbs/day
Pre/Post Trial #2 (75/75/100 g/day in wk −3..−1/+1..+4/+5..+8), multiparious cows, week +7
  Dry Matter Intake: 53.3 lbs/day
Pre/Post Trial #2 (75/75/100 g/day in wk −3..−1/+1..+4/+5..+8), multiparious cows, week +8
  Dry Matter Intake: 55.0 lbs/day
Pre/Post Trial #2 (75/75/100 g/day in wk −3..−1/+1..+4/+5..+8), multiparious cows, week −1
  Dry Matter Intake: 32.3 lbs/day
Pre/Post Trial #2 (75/75/100 g/day in wk −3..−1/+1..+4/+5..+8), multiparious cows, week −2
  Dry Matter Intake: 36.3 lbs/day
Pre/Post Trial #2 (75/75/100 g/day in wk −3..−1/+1..+4/+5..+8), multiparious cows, week −2 versus −1
  Change in Dry Matter Feed Intake: −3.91 lbs/day
Pre/Post Trial #2 (75/75/100 g/day in wk −3..−1/+1..+4/+5..+8), multiparious cows, week −3
  Dry Matter Intake: 31.9 lbs/day
Pre/Post Trial #2 (75/75/100 g/day in wk −3..−1/+1..+4/+5..+8), multiparious cows, weeks +1 through +4
  Dry Matter Intake: 42.2 lbs/day
Pre/Post Trial #2 (75/75/100 g/day in wk −3..−1/+1..+4/+5..+8), multiparious cows, weeks +1 through +8
  Dry Matter Intake: 48.2 lbs/day
Pre/Post Trial #2 (75/75/100 g/day in wk −3..−1/+1..+4/+5..+8), multiparious cows, weeks +5 through +8
  Dry Matter Intake: 54.1 lbs/day
Pre/Post Trial #2 (75/75/100 g/day in wk −3..−1/+1..+4/+5..+8), multiparious cows, weeks −3 through −1
  Dry Matter Intake: 33.2 lbs/day
Average of means of Pre-Partum Trial #2, Pre/Post Trial #1 and Pre/Post Trial #2 versus Control Trial #2, multiparious cows, pre-partum period (weeks −3 through −1)
  decrease in dry matter feed intake: 4.9%
